According to ChEMBL document CHEMBL1201862, “PubChem BioAssay data set” (2004):
The source made the active and inactive calls.

Columns and labels:
SN12K1 = assay: cells; assay type: functional; details: Homo sapiens
P388/ADR = assay: cells; assay type: functional; details: Mus musculus
P388 = assay: cells; assay type: functional; details: Mus musculus
HEK293 = assay: inhibitors of LMP1-driven NF-kB reporter, dose response, cell-based, HEK293, luciferase, cherry-pick (AID 588343); assay type: functional; details: Homo sapiens
Fatty acid synthase [1] = target: T1, Fatty acid synthase (Homo sapiens, UniProt P49327); assay: FAS thioesterase domain inhibitors, dose response, biochemical, endpoint fluorescence intensity, uHTS hits (AID 624327); assay type: functional;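 also: fluorescence from hydrolysis of an O-methyl fluorescein acyl ester substrate by the enzyme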
Fatty acid synthase [2] = target: T1, Fatty acid synthase; assay: FAS thioesterase domain inhibitors, dose response, biochemical, kinetic fluorescence intensity (AID 624326); assay type: functional;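 also: rate of fluorescence rise from hydrolysis of a fluorogenic O-methyl fluorescein ester substrate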
[3] = NIH-3T3 fibroblast cytotoxicity, dose response, cytotoxicity control, cell-based, fluorescence, Alamar Blue, secondary assay (AID 2327); assay type: functional;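 also: NIH-3T3 mouse fibroblasts cultured with fluconazole at 8 µg/mL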
Nonstructural protein 1 = Nonstructural protein 1 (Influenza A virus, UniProt Q194T2); assay type: functional, Influenza A virus (A/California/07/2009(H1N1))
INS1 = assay: beta cell apoptosis inhibitors, cytokine rescue, dose response, luminescence, retest (AID 449756); assay type: functional, cell-based; details: Rattus norvegicus;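 also: cell death triggered by IL-1 beta plus TNF-alpha plus IFN-gamma mixture; protective hits raise ATP signal compared with cytokine alone wells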
[4] = growth suppression of PTEN-null colon cells, dose response, cell-based, HCT116 PTEN knockout (AID 1047); assay type: functional;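 also: HCT116 colon tumor cells with PTEN knocked out; cells exposed to compound for 60 hours before readout; potency for loss of cell viability measured by luminescence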
[5] = growth suppression of beta-catenin-knockout colon cells, dose response, cell-based, HCT116, human colon tumor (AID 1045); assay type: functional;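 also: HCT116 colon tumor cells with beta catenin knocked out; cells exposed to compound for 60 hours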
[6] = C. albicans growth with fluconazole, confirmation, fluorescence, retest (AID 2467); assay type: functional, cell-based
[7] = target: T2, Microphthalmia-associated transcription factor (Homo sapiens, UniProt O75030); assay: TRPM1 promoter luciferase signal decrease, dose response, MITF inhibitor project, cell-based, SK-MEL-5, cherry-picked, set 3 (AID 493073); assay type: functional
T2 sequence (O75030 whole entry): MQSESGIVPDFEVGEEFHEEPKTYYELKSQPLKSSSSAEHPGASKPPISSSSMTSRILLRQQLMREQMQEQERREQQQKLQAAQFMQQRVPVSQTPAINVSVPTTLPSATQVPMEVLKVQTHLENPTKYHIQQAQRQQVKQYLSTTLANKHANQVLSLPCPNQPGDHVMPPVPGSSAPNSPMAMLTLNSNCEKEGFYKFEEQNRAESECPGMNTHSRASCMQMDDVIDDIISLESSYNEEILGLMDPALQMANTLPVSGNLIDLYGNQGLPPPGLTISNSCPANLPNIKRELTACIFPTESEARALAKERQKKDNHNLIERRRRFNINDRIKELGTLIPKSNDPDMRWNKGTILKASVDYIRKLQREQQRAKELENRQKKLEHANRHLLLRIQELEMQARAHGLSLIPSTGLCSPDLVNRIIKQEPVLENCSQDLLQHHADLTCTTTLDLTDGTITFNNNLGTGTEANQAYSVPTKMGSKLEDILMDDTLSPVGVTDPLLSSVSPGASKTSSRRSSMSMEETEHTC

Cytochrome P450 3A4 = Cytochrome P450 3A4 (Homo sapiens, UniProt P08684); details: Potency;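 also: confirmatory qHTS run detecting inhibitors and substrates of CYP3A4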
[8] = HepG2 cell cytotoxicity, dose response, cytotoxicity control for Shn3 inhibitor project, CellTiter-Glo, cherry-picked (AID 624134); assay type: functional, cell-based
[9] = target: T3, Heat shock factor protein 1 (Mus musculus, UniProt P38532); assay: HSF1 potentiators in luciferase reporter cells, confirmation, cell-based, NIH3T3, luminescence, dose retest (AID 435004); assay type: functional;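 also: stress induced by proteasome inhibitor MG132 added 30 min after compound; luciferase reporter driven by HSF1 response element in NIH3T3 cells; actives raise luminescence as potentiators of the MG132 stress response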
T3 sequence (P38532 whole entry): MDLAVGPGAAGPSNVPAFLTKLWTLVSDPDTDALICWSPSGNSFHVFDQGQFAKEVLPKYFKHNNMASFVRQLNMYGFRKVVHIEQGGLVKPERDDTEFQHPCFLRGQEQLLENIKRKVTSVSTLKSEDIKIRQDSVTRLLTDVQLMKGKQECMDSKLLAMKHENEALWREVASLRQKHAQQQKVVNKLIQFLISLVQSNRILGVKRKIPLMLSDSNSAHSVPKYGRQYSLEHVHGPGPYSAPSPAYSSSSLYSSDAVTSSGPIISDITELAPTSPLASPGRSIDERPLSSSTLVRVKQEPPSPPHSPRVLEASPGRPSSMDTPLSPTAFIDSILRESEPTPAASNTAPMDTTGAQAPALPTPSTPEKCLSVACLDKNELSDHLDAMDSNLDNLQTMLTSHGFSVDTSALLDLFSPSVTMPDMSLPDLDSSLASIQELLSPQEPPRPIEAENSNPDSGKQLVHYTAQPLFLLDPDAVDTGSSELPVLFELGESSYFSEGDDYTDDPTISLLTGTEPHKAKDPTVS

[10] = target: T4, Polyadenylate-binding protein 1 (Homo sapiens, UniProt P11940); assay: PABP1 MLLE–PAM2 interaction inhibitors, dose response, miRNA deadenylation inhibitor project, biochemical, fluorescence polarization, Cy5-PAM2 peptide, secondary (AID 602260); assay type: functional; details: read-out: IC50_Mean
[11] = Shn3 3'UTR reporter inhibitors, dose response, cell-based, Clone20 osteoblasts, firefly luciferase, cherry-picked (AID 624132); assay type: functional;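 also: firefly luciferase luminescence from reporter carrying the Shn3 3'UTR in osteoblasts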
[12] = target: T4, Polyadenylate-binding protein 1; assay: PABP1 MLLE–PAM2 binding inhibitor potency, dose response, biochemical, fluorescence polarization, FITC-PAM2 peptide (AID 602259); assay type: functional; details: read-out: IC50_Mean
[13] = control 3'UTR Renilla luciferase suppression, dose response, counter-screen for Shn3 inhibitor project, cell-based, Clone20-Shn3RL, cherry-picked (AID 624133); assay type: functional

T1 sequence (P49327 whole entry, the tested form may be a part): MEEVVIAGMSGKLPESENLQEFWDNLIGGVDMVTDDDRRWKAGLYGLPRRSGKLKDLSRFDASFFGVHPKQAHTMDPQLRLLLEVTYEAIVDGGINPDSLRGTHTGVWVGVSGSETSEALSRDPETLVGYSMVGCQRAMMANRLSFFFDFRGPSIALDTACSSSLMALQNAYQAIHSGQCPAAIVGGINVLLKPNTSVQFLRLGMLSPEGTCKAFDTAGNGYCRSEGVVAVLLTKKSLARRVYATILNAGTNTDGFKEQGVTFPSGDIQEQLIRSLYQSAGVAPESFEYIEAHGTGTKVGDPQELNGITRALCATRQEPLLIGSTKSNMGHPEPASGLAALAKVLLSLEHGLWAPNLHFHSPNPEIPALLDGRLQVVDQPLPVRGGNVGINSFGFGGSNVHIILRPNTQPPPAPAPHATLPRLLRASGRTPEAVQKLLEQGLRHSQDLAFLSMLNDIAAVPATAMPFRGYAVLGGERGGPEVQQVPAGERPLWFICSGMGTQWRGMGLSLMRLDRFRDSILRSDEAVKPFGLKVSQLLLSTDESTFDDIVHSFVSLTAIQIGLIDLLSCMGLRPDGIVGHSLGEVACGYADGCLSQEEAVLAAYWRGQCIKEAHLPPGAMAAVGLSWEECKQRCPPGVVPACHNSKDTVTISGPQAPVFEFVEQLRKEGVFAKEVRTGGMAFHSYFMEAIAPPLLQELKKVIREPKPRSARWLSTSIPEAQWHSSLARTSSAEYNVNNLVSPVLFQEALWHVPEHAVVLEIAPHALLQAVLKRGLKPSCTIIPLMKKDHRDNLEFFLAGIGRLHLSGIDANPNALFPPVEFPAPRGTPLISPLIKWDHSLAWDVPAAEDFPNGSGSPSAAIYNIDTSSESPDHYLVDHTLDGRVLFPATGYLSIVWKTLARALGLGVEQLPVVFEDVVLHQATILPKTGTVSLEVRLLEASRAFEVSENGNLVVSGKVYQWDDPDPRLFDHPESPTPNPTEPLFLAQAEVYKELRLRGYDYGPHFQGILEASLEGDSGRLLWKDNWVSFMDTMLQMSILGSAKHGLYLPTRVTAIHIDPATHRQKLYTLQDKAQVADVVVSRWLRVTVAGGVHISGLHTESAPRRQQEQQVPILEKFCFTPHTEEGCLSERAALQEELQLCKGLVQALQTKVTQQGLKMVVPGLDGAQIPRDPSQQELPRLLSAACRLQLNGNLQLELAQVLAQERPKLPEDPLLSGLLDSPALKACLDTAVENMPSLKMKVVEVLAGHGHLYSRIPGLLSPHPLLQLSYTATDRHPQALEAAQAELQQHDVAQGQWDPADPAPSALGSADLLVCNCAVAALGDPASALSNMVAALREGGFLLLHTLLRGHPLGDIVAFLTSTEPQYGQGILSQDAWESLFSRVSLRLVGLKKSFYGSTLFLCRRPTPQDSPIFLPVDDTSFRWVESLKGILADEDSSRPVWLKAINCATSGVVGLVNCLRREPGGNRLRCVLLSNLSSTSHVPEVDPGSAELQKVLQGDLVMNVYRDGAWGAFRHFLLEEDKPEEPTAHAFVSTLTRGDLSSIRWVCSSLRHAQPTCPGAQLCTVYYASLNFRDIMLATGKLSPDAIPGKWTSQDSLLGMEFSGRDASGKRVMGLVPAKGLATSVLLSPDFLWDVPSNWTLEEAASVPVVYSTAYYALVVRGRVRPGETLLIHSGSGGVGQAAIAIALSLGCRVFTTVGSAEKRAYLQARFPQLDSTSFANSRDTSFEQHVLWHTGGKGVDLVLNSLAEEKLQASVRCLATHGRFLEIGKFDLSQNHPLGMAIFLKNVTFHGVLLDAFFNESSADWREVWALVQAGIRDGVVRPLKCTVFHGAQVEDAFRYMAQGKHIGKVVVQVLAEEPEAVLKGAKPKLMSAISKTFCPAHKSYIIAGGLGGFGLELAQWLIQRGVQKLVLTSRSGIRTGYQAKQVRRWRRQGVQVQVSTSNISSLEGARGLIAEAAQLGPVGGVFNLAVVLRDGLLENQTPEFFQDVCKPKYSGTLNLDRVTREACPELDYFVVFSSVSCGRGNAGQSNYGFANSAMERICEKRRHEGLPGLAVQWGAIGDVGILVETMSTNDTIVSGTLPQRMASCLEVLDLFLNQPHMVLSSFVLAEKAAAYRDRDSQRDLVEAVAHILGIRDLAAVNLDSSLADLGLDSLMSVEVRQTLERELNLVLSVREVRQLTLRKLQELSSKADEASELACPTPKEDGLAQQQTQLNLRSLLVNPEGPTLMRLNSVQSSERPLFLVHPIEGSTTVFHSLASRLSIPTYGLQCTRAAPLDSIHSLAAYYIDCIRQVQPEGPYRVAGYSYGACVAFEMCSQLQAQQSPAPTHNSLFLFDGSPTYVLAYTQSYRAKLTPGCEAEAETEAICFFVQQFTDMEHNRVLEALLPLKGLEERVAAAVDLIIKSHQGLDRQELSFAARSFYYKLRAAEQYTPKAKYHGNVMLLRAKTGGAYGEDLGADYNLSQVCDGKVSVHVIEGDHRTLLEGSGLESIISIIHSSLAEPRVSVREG
T4 sequence (P11940 whole entry): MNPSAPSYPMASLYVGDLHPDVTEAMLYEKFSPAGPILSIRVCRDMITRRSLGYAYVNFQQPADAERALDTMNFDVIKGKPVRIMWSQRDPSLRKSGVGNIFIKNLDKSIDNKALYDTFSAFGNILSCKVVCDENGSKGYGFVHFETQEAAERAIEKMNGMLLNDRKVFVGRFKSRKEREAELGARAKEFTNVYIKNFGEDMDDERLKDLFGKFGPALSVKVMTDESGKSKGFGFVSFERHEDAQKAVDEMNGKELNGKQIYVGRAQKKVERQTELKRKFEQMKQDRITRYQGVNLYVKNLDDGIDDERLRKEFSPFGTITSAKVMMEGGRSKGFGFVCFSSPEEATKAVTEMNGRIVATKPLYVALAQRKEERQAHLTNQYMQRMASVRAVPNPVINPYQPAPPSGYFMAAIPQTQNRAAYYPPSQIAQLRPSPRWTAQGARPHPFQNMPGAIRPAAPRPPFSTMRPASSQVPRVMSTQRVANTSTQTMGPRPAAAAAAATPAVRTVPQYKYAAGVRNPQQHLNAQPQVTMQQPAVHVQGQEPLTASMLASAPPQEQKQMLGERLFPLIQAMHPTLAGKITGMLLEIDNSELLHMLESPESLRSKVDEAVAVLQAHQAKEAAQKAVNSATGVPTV
Cytochrome P450 3A4, sequence (P08684 whole entry): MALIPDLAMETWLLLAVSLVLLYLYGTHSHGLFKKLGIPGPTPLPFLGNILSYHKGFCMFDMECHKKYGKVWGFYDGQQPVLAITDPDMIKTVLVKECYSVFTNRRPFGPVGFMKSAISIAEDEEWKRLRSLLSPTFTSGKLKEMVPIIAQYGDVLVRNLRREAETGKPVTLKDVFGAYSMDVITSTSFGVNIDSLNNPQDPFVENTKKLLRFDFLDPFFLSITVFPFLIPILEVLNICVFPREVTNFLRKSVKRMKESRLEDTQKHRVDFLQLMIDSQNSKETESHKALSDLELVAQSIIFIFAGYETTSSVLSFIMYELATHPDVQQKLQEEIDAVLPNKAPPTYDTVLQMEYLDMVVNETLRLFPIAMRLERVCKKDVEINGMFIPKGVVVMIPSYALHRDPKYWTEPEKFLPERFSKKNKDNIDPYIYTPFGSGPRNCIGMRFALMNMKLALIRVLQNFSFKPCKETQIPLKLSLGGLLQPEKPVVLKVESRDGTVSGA
Nonstructural protein 1, sequence (Q194T2 whole entry): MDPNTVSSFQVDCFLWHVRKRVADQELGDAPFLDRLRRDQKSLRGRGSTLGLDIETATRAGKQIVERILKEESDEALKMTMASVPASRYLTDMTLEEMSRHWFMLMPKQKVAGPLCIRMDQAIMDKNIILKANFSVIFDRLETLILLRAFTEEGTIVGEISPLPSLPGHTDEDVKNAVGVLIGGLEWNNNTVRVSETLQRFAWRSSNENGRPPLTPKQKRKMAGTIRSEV

Which GI50 (SN12K1) does the source give for `COc1ccc(C2COc3cc(O)c(O)cc3C2)cc1` (stereo not drawn) here?
Its GI50 is 13.8 µM (inactive).

And the GI50 (P388/ADR)?
Its GI50 is 1.19 µM (inactive).

What about the GI50 (P388) of the same compound?
Its GI50 is 1.67 µM (inactive).

What does the source list for `CCCCCCCCCCCCCCCCCCOCC(COCCOCC[N+]1(CCCCCC(=O)[O-])CCCC1)Oc1ncccn1` (stereo not drawn)?
GI50 (SN12K1): 4.12 µM (inactive); GI50 (P388/ADR): 11.2 µM (inactive); GI50 (P388): 0.288 µM (active)

With `O=C(NCCOc1ccccc1)c1ccc2c(c1)OCO2` as the compound, how does the AC50 (HEK293) read?
The AC50 was 1.62 µM (active).

For `CC[C@]1(c2cccc(C)c2)C(=O)N(C(=O)OC)N1C(=O)OC`, which IC50 (Fatty acid synthase [1]) is on record?
The IC50 was 9.04 µM (active).

And the IC50 (Fatty acid synthase [2])?
Its IC50 is 8.6 µM (active).

For `CSc1ccccc1C(=O)N1CCC2(CC1)CC(=O)c1ccccc1O2`, which AC50 (HEK293) is on record?
The AC50 was 22.5 µM (active).

With `COc1cc(C(=O)Oc2c(CN3CCOCC3)cc(Cl)c3cccnc23)cc(OC)c1OC` as the compound, how does the EC50 [3] read?
Its EC50 is > 160 µM (inactive).

What about the IC50 (Nonstructural protein 1) of the same compound?
Its IC50 is 19.9 µM (active).

And the AC50 (INS1)?
The AC50 was 4.28 µM (active).

And the EC50 [4]?
Its EC50 is 2.71 µM (active).

And the EC50 [5]?
The EC50 was 2.31 µM (active).

What about the EC50 [6] of the same compound?
The EC50 was 4.15 µM (active).

What about the AC50 [7] of the same compound?
Its AC50 is 7.55 µM (active).

Which IC50 (Fatty acid synthase [1]) does the source give for `O=C(NCCCCc1ccccc1)C1CC(c2cccc([N+](=O)[O-])c2)=NO1` (stereo not drawn) here?
The IC50 was 3.11 µM (active).

What about the IC50 (Fatty acid synthase [2]) of the same compound?
The IC50 was 4.27 µM (active).

With `Cc1ccc([N+](=O)[O-])cc1NC(=O)CN(C(=O)c1ccc(Cl)cc1)C1CCCCC1` as the compound, how does the IC50 (Fatty acid synthase [1]) read?
The IC50 was 1.18 µM (active).

What about the EC50 [4] of the same compound?
The EC50 was 43.7 µM (active).

What about the EC50 [5] of the same compound?
Its EC50 is 209 µM (active).

And the IC50 (Fatty acid synthase [2])?
The IC50 was 1.24 µM (active).

What does the source list for `NC1CCCCC1.O=P(O)(O)C(CSc1ccccc1)P(=O)(O)O`?
GI50 (SN12K1): > 100 µM (inactive); GI50 (P388/ADR): > 100 µM (inactive); GI50 (P388): > 100 µM (inactive)

With `C=CCSSSCC=C` [ALLITRIDIN] as the compound, how does the AC50 (Cytochrome P450 3A4) read?
Its AC50 is 39.8 µM (inconclusive).

With `Cc1cc(Sc2ncnc(N)c2[N+](=O)[O-])ncn1` as the compound, how does the EC50 [3] read?
Its EC50 is 2.67 µM (inconclusive).

And the AC50 [8]?
Its AC50 is 30.1 µM (active).

What about the EC50 [9] of the same compound?
The EC50 was 12.2 µM (active).

What about the IC50 [10] of the same compound?
Its IC50 is > 66 µM (inactive).

And the AC50 [11]?
Its AC50 is 5.7 µM (active).

And the IC50 [12]?
The IC50 was > 66 µM (inactive).

What about the AC50 [13] of the same compound?
The AC50 was 7.76 µM (active).

What about the EC50 [6] of the same compound?
The EC50 was 0.58 µM (active).

What about the AC50 [7] of the same compound?
The AC50 was 7.61 µM (active).

With `COC1OC(=O)[C@H]2O[N+]([O-])=C(C)[C@@H]12` (stereo partly drawn) as the compound, how does the GI50 (SN12K1) read?
The GI50 was > 100 µM (inactive).

What about the GI50 (P388/ADR) of the same compound?
The GI50 was > 100 µM (inactive).

What about the GI50 (P388) of the same compound?
Its GI50 is > 100 µM (inactive).

What does the source list for `C/C(=C\COc1ccc2ccc(=O)oc2c1)C1=CC(=O)C(C)(C)O1` [GEIPARVARIN]?
GI50 (SN12K1): 3.76 µM (inactive); GI50 (P388/ADR): 1.44 µM (inactive); GI50 (P388): 1.9 µM (inactive)

With `Nc1cccc(N)c1` as the compound, how does the AC50 (Cytochrome P450 3A4) read?
Its AC50 is 31.6 µM (inconclusive).
